According to ChEMBL document CHEMBL5634143, “Development of teixobactin analogues containing hydrophobic, non-proteogenic amino acids that are highly potent against multidrug-resistant bacteria and biofilms” (Eur J Med Chem, 2023):
≈ marks a conversion by molar mass, not a printed value. Calls of active or inactive are those of the source. No cut-off for these calls is given here.

Tests used:
[1] = tested on: Staphylococcus epidermidis; assay: Antibacterial activity against Staphylococcus epidermidis 1457 assessed as inhibition of biofilm formation at 10 ug/ml incubated for 5 hrs by confocal microscopic analysis; type: functional, organism-based; settings: dose 10.0 µg/ml
Staphylococcus aureus [2] = assay: Antibacterial activity against Staphylococcus aureus 15981 assessed as inhibition of biofilm formation at 10 ug/ml incubated for 5 hrs by confocal microscopic analysis; type: functional, organism-based; settings: dose 10.0 µg/ml
[3] = tested on: Staphylococcus epidermidis; assay: Antibacterial activity against Staphylococcus epidermidis 12228 assessed as inhibition of bacterial growth; type: functional
Staphylococcus aureus [4] = assay: Antibacterial activity against methicilin-resistant Staphylococcus aureus 42412 assessed as inhibition of bacterial growth; type: functional
Enterococcus faecium [5] = assay: Antibacterial activity against Vancomycin-resistant Enterococcus faecium 1014 assessed as inhibition of bacterial growth; type: functional
[6] = tested on: Staphylococcus saprophyticus; assay: Antibacterial activity against Staphylococcus saprophyticus ATCC 15305 assessed as inhibition of bacterial growth; type: functional
Staphylococcus aureus [7] = assay: Antibacterial activity against methicilin-resistant Staphylococcus aureus ATCC 700699 assessed as inhibition of bacterial growth; type: functional
Bacillus subtilis = assay: Antibacterial activity against Bacillus subtilis ATCC 6633 assessed as inhibition of bacterial growth; type: functional
[8] = tested on: Staphylococcus saprophyticus; assay: Antibacterial activity against Staphylococcus saprophyticus ATCC BAA 750 assessed as inhibition of bacterial growth; type: functional
[9] = tested on: Staphylococcus saprophyticus; assay: Antibacterial activity against Staphylococcus saprophyticus ATCC 49907 assessed as inhibition of bacterial growth; type: functional
Staphylococcus aureus [10] = assay: Antibacterial activity against methicilin-resistant Staphylococcus aureus 21455 assessed as inhibition of bacterial growth; type: functional
Enterococcus faecium [11] = assay: Antibacterial activity against Vancomycin-resistant Enterococcus […] ATCC 700802 assessed as inhibition of bacterial growth; type: functional
Staphylococcus aureus [12] = assay: Antibacterial activity against methicilin-resistant Staphylococcus aureus 1003 assessed as inhibition of bacterial growth; type: functional
Staphylococcus aureus [13] = assay: Antibacterial activity against Staphylococcus aureus 4299 assessed as inhibition of bacterial growth; type: functional
Staphylococcus aureus [14] = assay: Antibacterial activity against Staphylococcus aureus 29213 assessed as inhibition of bacterial growth; type: functional
Enterococcus faecium [15] = assay: Antibacterial activity against Vancomycin-resistant Enterococcus […] ATCC 29212 assessed as inhibition of bacterial growth; type: functional; settings: Enterococcus faecalis
[16] = tested on: Staphylococcus saprophyticus; assay: Antibacterial activity against Staphylococcus saprophyticus ATCC 49453 assessed as inhibition of bacterial growth; type: functional
Bacillus cereus = assay: Antibacterial activity against Bacillus cereus ATCC 11788 assessed as inhibition of bacterial growth; type: functional
Staphylococcus aureus [17] = assay: Bactericidal activity against methicilin-resistant Staphylococcus aureus 21455 assessed as reduction in bacterial colony forming unit at 16 times MIC observed after 2 hrs by time-kill kinetic assay; type: functional
Cell membrane [18] = assay: Induction of cytoplasmic membrane depolarization in methicilin-resistant Staphylococcus aureus 21455 at 16 times MIC by DiSC3(5) dye-based fluorescence assay
[19] = Hemolytic activity in rabbit erythrocytes assessed as hemolysis at 256 microg/ml relative to control; type: toxicity, cell-based, Oryctolagus cuniculus, Erythrocyte; settings: at 256 µg/mL, read-out: Activity
[20] = Hemolytic activity in rabbit erythrocytes assessed as hemolysis at 64 microg/ml relative to control; type: toxicity, cell-based, Oryctolagus cuniculus, Erythrocyte; settings: at 64 µg/mL, read-out: Activity
Staphylococcus aureus [21] = assay: Bactericidal activity against methicilin-resistant Staphylococcus aureus 21455 assessed as inhibition of bacterial growth by time-kill kinetic assay; type: functional, organism-based
Staphylococcus aureus [22] = assay: Bactericidal activity against methicilin-resistant Staphylococcus aureus 21455 assessed as reduction in bacterial viability at 2 times MIC observed after 4 hrs by time-kill kinetic assay relative to control; type: functional
Cell membrane [23] = assay: Induction of cytoplasmic membrane depolarization in methicilin-resistant Staphylococcus aureus 21455 at 8 times MIC by DiSC3(5) dye-based fluorescence assay
Cell membrane [24] = assay: Induction of cell membrane […] in methicilin-resistant Staphylococcus aureus 21455 assessed as increase in fluorescence intensity at 16 times MIC by SYTOX green dye based fluorescence analysis; type: cell membranes
Cell membrane [25] = assay: Induction of cell membrane […] in methicilin-resistant Staphylococcus aureus 21455 assessed as increase in fluorescence intensity at 8 times MIC by SYTOX green dye based fluorescence analysis; type: cell membranes

For `CN[C@H](CC(C)C)C(=O)N[C@H]1C(=O)N[C@@H](CC(N)=O)C(=O)N[C@H]2C(=O)N[C@H]3C(=O)N[C@H](C(=O)N[C@H](C(=O)O)c4cc(O)cc(O)c4-c4cc3ccc4O)[C@H](O)c3ccc(c(Cl)c3)Oc3cc2cc(c3O[C@@H]2O[C@H](CO)[C@@H](O)[C@H](O)[C@H]2O[C@H]2C[C@](C)(N)[C@H](O)[C@H](C)O2)Oc2ccc(cc2Cl)[C@H]1O`, the Activity [1] was “Active” and the Activity (Staphylococcus aureus [2]) was “Active”.
For `CCC[C@@H]1NC(=O)[C@H](CCCNC(=N)N)NC(=O)[C@H](NC(=O)[C@H](CO)NC(=O)[C@@H](NC(=O)[C@H](NC(=O)[C@@H](CCC(N)=O)NC(=O)[C@H](CO)NC(=O)[C@@H](NC(=O)[C@@H](Cc2ccccc2)NC)[C@@H](C)CC)[C@@H](C)CC)[C@@H](C)CC)[C@H](C)OC(=O)[C@H]([C@@H](C)CC)NC1=O`, the MIC [3] was 0.063 µg/mL (≈ 0.0495 µM), the MIC (Staphylococcus aureus [4]) was 0.063 µg/mL (≈ 0.0495 µM) and the MIC (Enterococcus faecium [5]) was 2 µg/mL (≈ 1.57 µM). For the same molecule, the MIC [6] was 0.063 µg/mL (≈ 0.0495 µM), the MIC (Staphylococcus aureus [7]) was 0.5 µg/mL (≈ 0.393 µM) and the MIC (Bacillus subtilis) was 0.063 µg/mL (≈ 0.0495 µM). The MIC [8] was 0.063 µg/mL (≈ 0.0495 µM), the MIC [9] was 0.063 µg/mL (≈ 0.0495 µM) and the MIC (Staphylococcus aureus [10]) was 0.25 µg/mL (≈ 0.196 µM). It also gave an MIC (Enterococcus faecium [11]) of 1 µg/mL (≈ 0.786 µM), an MIC (Staphylococcus aureus [12]) of 1 µg/mL (≈ 0.786 µM) and an MIC (Staphylococcus aureus [13]) of 0.25 µg/mL (≈ 0.196 µM). For the same molecule, the MIC (Staphylococcus aureus [14]) was 0.5 µg/mL (≈ 0.393 µM), the MIC (Enterococcus faecium [15]) was 2 µg/mL (≈ 1.57 µM) and the MIC [16] was 0.063 µg/mL (≈ 0.0495 µM). For the same molecule, the MIC (Bacillus cereus) was 0.5 µg/mL (≈ 0.393 µM).
For `CC[C@H](C)[C@H](NC(=O)[C@@H](Cc1ccccc1)NC)C(=O)N[C@@H](CCCNC(=N)N)C(=O)N[C@H](CCCNC(=N)N)C(=O)N[C@@H](C(=O)N[C@H](C(=O)N[C@@H](CO)C(=O)N[C@H]1C(=O)N[C@@H](CCCNC(=N)N)C(=O)N[C@@H](C2CCCCC2)C(=O)N[C@@H]([C@@H](C)CC)C(=O)O[C@H]1C)[C@@H](C)CC)[C@@H](C)CC`, the MIC [3] was 0.063 µg/mL (≈ 0.0447 µM), the MIC (Staphylococcus aureus [4]) was 1 µg/mL (≈ 0.709 µM) and the Activity (Staphylococcus aureus [17]) was “>=3 log10CFU”. For the same molecule, the MIC (Enterococcus faecium [5]) was 2 µg/mL (≈ 1.42 µM), the Activity (Cell membrane [18]) was “Active” and the MIC [6] was under 0.063 µg/mL. For the same molecule, the hemolysis at 256 microg/ml [19] was 25%, the hemolysis at 64 microg/ml [20] was 5.4% and the MIC (Staphylococcus aureus [7]) was 1 µg/mL (≈ 0.709 µM). The MIC (Bacillus subtilis) was 0.063 µg/mL (≈ 0.0447 µM), the MIC [8] was under 0.063 µg/mL and the MIC [9] was 0.063 µg/mL (≈ 0.0447 µM). For the same molecule, the MIC (Staphylococcus aureus [10]) was 2 µg/mL (≈ 1.42 µM), the Activity (Staphylococcus aureus [21]) was “Dose-Dependent Effect” and the MIC (Enterococcus faecium [11]) was 4 µg/mL (≈ 2.84 µM). The Activity (Staphylococcus aureus [22]) was “>=99.9%”, the MIC (Staphylococcus aureus [12]) was 1 µg/mL (≈ 0.709 µM) and the MIC (Staphylococcus aureus [13]) was 1 µg/mL (≈ 0.709 µM). For the same molecule, the Activity (Cell membrane [23]) was “Active”, the Activity (Cell membrane [24]) was 70.2% and the Activity (Cell membrane [25]) was 65.5%. The MIC (Staphylococcus aureus [14]) was 0.5 µg/mL (≈ 0.355 µM), the MIC (Enterococcus faecium [15]) was 2 µg/mL (≈ 1.42 µM) and the MIC [16] was 0.063 µg/mL (≈ 0.0447 µM). The MIC (Bacillus cereus) was 0.5 µg/mL (≈ 0.355 µM).
`CCCCCCCCCC(=O)N[C@@H](Cc1c[nH]c2ccccc12)C(=O)N[C@H](CC(N)=O)C(=O)N[C@@H](CC(=O)O)C(=O)N[C@@H]1C(=O)NCC(=O)N[C@@H](CCCN)C(=O)N[C@@H](CC(=O)O)C(=O)N[C@H](C)C(=O)N[C@@H](CC(=O)O)C(=O)NCC(=O)N[C@H](CO)C(=O)N[C@@H]([C@H](C)CC(=O)O)C(=O)N[C@@H](CC(=O)c2ccccc2N)C(=O)O[C@@H]1C` showed an MIC [3] of 0.125 µg/mL (≈ 0.0771 µM), an MIC (Staphylococcus aureus [4]) of 1 µg/mL (≈ 0.617 µM) and an MIC (Enterococcus faecium [5]) of 2 µg/mL (≈ 1.23 µM). For the same molecule, the MIC [6] was 0.125 µg/mL (≈ 0.0771 µM), the MIC (Staphylococcus aureus [7]) was 2 µg/mL (≈ 1.23 µM) and the MIC (Bacillus subtilis) was 0.125 µg/mL (≈ 0.0771 µM). For the same molecule, the MIC [8] was 0.125 µg/mL (≈ 0.0771 µM), the MIC [9] was 0.125 µg/mL (≈ 0.0771 µM) and the MIC (Staphylococcus aureus [10]) was 0.5 µg/mL (≈ 0.309 µM). The MIC (Enterococcus faecium [11]) was 1 µg/mL (≈ 0.617 µM), the MIC (Staphylococcus aureus [12]) was 2 µg/mL (≈ 1.23 µM) and the MIC (Staphylococcus aureus [13]) was 0.25 µg/mL (≈ 0.154 µM). For the same molecule, the MIC (Staphylococcus aureus [14]) was 0.25 µg/mL (≈ 0.154 µM), the MIC (Enterococcus faecium [15]) was 1 µg/mL (≈ 0.617 µM) and the MIC [16] was 0.125 µg/mL (≈ 0.0771 µM). The MIC (Bacillus cereus) was 0.125 µg/mL (≈ 0.0771 µM).
With `CC[C@H](C)[C@H](NC(=O)[C@@H](Cc1ccccc1)NC)C(=O)N[C@@H](CO)C(=O)N[C@H](CCC(N)=O)C(=O)N[C@@H](C(=O)N[C@H](C(=O)N[C@@H](CO)C(=O)N[C@H]1C(=O)N[C@@H](CCCNC(=N)N)C(=O)N[C@@H](C2CCCCC2)C(=O)N[C@@H]([C@@H](C)CC)C(=O)O[C@H]1C)[C@@H](C)CC)[C@@H](C)CC` the MIC [3] was 0.063 µg/mL (≈ 0.048 µM), the MIC (Staphylococcus aureus [4]) was 0.063 µg/mL (≈ 0.048 µM) and the MIC (Enterococcus faecium [5]) was 0.25 µg/mL (≈ 0.19 µM). For the same molecule, the MIC [6] was under 0.063 µg/mL, the MIC (Staphylococcus aureus [7]) was 0.5 µg/mL (≈ 0.381 µM) and the MIC (Bacillus subtilis) was 0.063 µg/mL (≈ 0.048 µM). The MIC [8] was 0.063 µg/mL (≈ 0.048 µM), the MIC [9] was 0.063 µg/mL (≈ 0.048 µM) and the MIC (Staphylococcus aureus [10]) was 0.5 µg/mL (≈ 0.381 µM). The MIC (Enterococcus faecium [11]) was 0.5 µg/mL (≈ 0.381 µM), the MIC (Staphylococcus aureus [12]) was 0.125 µg/mL (≈ 0.0952 µM) and the MIC (Staphylococcus aureus [13]) was 0.063 µg/mL (≈ 0.048 µM). It also gave an MIC (Staphylococcus aureus [14]) of 0.063 µg/mL (≈ 0.048 µM), an MIC (Enterococcus faecium [15]) of 1 µg/mL (≈ 0.762 µM) and an MIC [16] of 0.125 µg/mL (≈ 0.0952 µM). It also gave an MIC (Bacillus cereus) of 0.25 µg/mL (≈ 0.19 µM).
